Read-outs that look alike come from different tables or passages of the source.
Columns and labels:
[1] = Cell Titer 96 (Toxicity) in the secondary assay; assay type: cell-based; details: human, HepG2 2.2.15 cells (confluent cultures), unit from conc. ranges in the 1st table, read-out: CC50 - compound concentration that reduces cell viability by 50%
Hepatitis B virus [2] = test: Primary anti-Hepatitis B virus assay (primary screen); assay type: cell-based; details: data confirmed in the secondary assay
Procedure: (§1) Hepatitis B antiviral assays (Korba & Gerin, 1992, Antivir. Res. 19:55) are conducted using confluent cultures of 2.2.15 cells (genotype ayw; parental cell HepG2) maintained on 96-well flat-bottomed tissue culture plates (confluence in this culture system is required for active, high levels of Hepatitis B replication equivalent to that observed in chronically-infected individuals (Sells, et al., 1988, J. Virol. 62:2836; Korba and Gerin, 1992, Antivir. Res. 19:55). Cultures are treated for 7 days. Typically, 4 doses (10-fold or 3-fold steps), in triplicate are used. Hepatitis B DNA levels in the culture medium (representing Hepatitis B virion production) are assessed by quantitative blot hybridization 24 hrs. after the last treatment. Cytotoxicity is assessed by uptake of neutral red dye 24 hr. following the last treatment. Lamivudine (LMV) is used as the standard assay control, but other control compounds are also available.
EC50, EC90 and CC50 values are calculated by linear regression analysis (MS EXCEL®, QuattroPro®) using data combined from all treated cultures (Korba & Gerin, 1992, Antivir. Res. 19:55; Okuse, et al., 2005, Antivir. Res. 65:23). Standard deviations for EC50 and EC90 values are calculated from the standard errors generated by the regression analyses. […]

Hepatitis B virus [3] = test: Secondary anti-Hepatitis B virus assay, quantitative polymerase chain reaction (intracellular DNA); assay type: cell-based, Hepatitis B virus (Hepatitis B-adr); details: for Sl50 - CC50/EC50 / Sl90 - CC50/EC90: selectivity index; for EC50 / EC90: Hepatitis B-adr, intracellular DNA by qPCR, vehicle DMSO, unit from conc. ranges in the 1st table; for EC50: read-out: EC50 - compound concentration that reduces viral replication by 50%; for EC90: read-out: EC90 - compound concentration that reduces viral replication by 90%
Procedure: as §1
EC50, EC90 and CC50 values are calculated by linear regression analysis (MS EXCEL®, QuattroPro®) using data combined from all treated cultures (Korba & Gerin, 1992, Antivir. Res. 19:55; Okuse, et al., 2005, Antivir. Res. 65:23). Standard deviations for EC50 and EC90 values are calculated from the standard errors generated by the regression analyses. EC50 and EC90 are drug concentrations at which a 2-fold, or a 10-fold depression of Hepatitis B DNA (relative to the average levels in untreated cultures), respectively, is observed. CC50 is the drug concentration at which a 2-fold lower level of neutral red dye uptake (relative to the average levels in untreated cultures) is observed. The Selectivity index (S.I.) is calculated as CC50/EC90 since at least a 3-fold depression of Hepatitis B DNA levels is typically required to achieve statistical significance in this assay system (Korba & Gerin, 1992, Antivir. Res. 19:55).
Confluent cultures of HepG2 2.2.15 cells maintained on 48-well flat-bottomed tissue culture plates are treated as described for the primary assay. Hepatitis B virion DNA levels in the culture medium and cytotoxicity are assessed as described for the primary assay. […] Res. 19:55). EC50, EC90, and S.I. values are calculated for both virion DNA and intracellular Hepatitis B DNA replication intermediates.

HepG2 2.2.15 = test: Cell Titer 96 (Toxicity) in the secondary assay; assay type: cell-based; details: HepG2 2.2.15 cells, unit from conc. ranges in the 1st table, read-out: CC50 - compound concentration that reduces cell viability by 50%
[4] = Hepatitis B virus, HepG2 2.2.15, HepG2 2.2.15 cells
[5] = HepG2 2.2.15 cells, listed as 3TC (1)
[6] = HepG2 2.2.15 cells, listed as 3TC (2)
[7] = HepG2 2.2.15 cells, listed as 3TC (3)

SMILES | CC50 at 7 days [1] [nM] | activity in the primary screen (Hepatitis B virus [2]) | Sl50 - CC50/EC50 (Hepatitis B virus [3]; HepG2 2.2.15 cells) | Sl90 - CC50/EC90 (Hepatitis B virus [3]; HepG2 2.2.15 cells) | EC50 (Hepatitis B virus [3]; [4]) [nM] | EC90 (Hepatitis B virus [3]; [4]) [nM] | CC50 (HepG2 2.2.15; listed as 3TC (1)) [nM] | CC50 (HepG2 2.2.15; listed as 3TC (2)) [nM] | CC50 (HepG2 2.2.15; listed as 3TC (3)) [nM] | EC50 (Hepatitis B virus [3]; [5]) [nM] | EC90 (Hepatitis B virus [3]; [5]) [nM] | EC90 (Hepatitis B virus [3]; [6]) [nM] | EC50 (Hepatitis B virus [3]; [7]) [nM] | EC90 (Hepatitis B virus [3]; [7]) [nM] | Sl50 - CC50/EC50 (Hepatitis B virus [3]; [5]) | Sl50 - CC50/EC50 (Hepatitis B virus [3]; [6]) | Sl50 - CC50/EC50 (Hepatitis B virus [3]; [7])
CCC[C@H](Nc1nc(-c2ccc(NC(=O)NCC)c(OC)c2)ncc1C)c1cccnc1 (stereo in doubt) [Compound 1A, 1-ethyl-3-(2-methoxy-4-(5-methyl-4-((1-(pyridine-3-yl)butyl)amino)pyrimidin-2-yl)phenyl)urea] | 25400 | active | >80 | 1 | < 320 | 710 |  |  |  |  |  |  |  |  |  |  | 
Nc1ccn([C@@H]2CS[C@H](CO)O2)c(=O)n1 [Compound 3TC, 2′,3′-dideoxy-3′-thiacytidine] |  |  |  | 1 | 60 |  | > 500 | > 1000 | > 2000 | 40 | > 500 | > 1000 | 50 | > 2000 | >12 | >15 | >43
